Assay results reported in ChEMBL document CHEMBL4507276 (2021).

Experiments:
[1] = target: T1, Aurora kinase A (Homo sapiens) (UniProt O14965); conditions: Compound concentration 1000.0 nM
T1 sequence (whole entry): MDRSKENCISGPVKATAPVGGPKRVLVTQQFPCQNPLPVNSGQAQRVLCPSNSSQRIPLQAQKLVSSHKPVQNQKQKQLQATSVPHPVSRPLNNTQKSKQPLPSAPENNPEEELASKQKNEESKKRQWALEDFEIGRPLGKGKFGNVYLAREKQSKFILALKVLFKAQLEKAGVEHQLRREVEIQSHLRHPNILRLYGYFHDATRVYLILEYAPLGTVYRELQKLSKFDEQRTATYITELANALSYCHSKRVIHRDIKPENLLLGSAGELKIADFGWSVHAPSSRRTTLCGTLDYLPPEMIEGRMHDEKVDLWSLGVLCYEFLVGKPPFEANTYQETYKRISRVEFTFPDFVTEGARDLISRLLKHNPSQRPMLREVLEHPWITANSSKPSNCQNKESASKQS

[2] = target: D(1B) dopamine receptor (Homo sapiens) (UniProt P21918); conditions: Compound concentration 10.0 uM
Chain of D(1B) dopamine receptor (Homo sapiens) (P21918 whole entry): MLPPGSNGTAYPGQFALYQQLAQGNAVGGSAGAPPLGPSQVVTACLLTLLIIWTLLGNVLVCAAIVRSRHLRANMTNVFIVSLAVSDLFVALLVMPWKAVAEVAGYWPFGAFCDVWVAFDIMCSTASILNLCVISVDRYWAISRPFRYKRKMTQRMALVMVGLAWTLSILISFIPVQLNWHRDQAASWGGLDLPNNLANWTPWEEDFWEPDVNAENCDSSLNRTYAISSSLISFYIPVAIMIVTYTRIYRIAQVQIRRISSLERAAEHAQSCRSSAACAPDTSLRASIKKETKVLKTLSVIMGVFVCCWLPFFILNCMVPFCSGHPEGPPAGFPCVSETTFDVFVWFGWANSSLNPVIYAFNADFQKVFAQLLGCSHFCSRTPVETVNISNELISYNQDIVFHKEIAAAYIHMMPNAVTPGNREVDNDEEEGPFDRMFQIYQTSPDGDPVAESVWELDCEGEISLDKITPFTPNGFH

[3] = tested on: Mast/stem cell growth factor receptor Kit (Homo sapiens), P10721 [D816H]; conditions: Compound concentration 1000.0 nM
Chain of Mast/stem cell growth factor receptor Kit (Homo sapiens), P10721 [D816H] (P10721 whole entry D816H): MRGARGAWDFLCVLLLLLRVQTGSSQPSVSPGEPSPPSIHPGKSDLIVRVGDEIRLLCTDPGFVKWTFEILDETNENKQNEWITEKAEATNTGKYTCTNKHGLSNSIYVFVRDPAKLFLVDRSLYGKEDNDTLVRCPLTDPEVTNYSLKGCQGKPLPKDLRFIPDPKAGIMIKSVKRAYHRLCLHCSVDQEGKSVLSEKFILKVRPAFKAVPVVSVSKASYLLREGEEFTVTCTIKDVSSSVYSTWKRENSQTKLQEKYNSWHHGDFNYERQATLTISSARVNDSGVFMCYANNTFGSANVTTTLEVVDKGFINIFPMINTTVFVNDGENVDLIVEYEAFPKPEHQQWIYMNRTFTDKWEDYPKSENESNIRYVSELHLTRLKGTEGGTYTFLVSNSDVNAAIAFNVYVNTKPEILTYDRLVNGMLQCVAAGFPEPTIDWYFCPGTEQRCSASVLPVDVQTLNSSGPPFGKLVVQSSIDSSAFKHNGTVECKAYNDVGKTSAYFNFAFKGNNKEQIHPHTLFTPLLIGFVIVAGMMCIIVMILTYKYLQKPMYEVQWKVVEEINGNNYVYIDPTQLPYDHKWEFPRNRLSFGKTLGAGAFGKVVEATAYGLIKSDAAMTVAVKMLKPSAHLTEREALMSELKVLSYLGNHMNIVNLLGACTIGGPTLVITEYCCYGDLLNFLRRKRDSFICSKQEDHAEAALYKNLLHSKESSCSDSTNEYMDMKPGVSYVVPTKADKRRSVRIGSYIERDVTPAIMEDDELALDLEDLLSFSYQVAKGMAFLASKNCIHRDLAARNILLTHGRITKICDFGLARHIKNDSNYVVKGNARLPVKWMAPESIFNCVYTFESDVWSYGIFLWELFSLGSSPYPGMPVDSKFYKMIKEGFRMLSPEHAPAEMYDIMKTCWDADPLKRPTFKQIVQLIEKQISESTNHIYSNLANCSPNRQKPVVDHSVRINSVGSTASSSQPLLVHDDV

[4] = target: Dual specificity tyrosine-phosphorylation-regulated kinase 1A (Homo sapiens) (UniProt Q13627); conditions: Compound concentration 1000.0 nM
[5] = target: T2, Calcium/calmodulin-dependent protein kinase type IV (Homo sapiens) (UniProt Q16566); conditions: Compound concentration 1000.0 nM
T2 sequence (whole entry): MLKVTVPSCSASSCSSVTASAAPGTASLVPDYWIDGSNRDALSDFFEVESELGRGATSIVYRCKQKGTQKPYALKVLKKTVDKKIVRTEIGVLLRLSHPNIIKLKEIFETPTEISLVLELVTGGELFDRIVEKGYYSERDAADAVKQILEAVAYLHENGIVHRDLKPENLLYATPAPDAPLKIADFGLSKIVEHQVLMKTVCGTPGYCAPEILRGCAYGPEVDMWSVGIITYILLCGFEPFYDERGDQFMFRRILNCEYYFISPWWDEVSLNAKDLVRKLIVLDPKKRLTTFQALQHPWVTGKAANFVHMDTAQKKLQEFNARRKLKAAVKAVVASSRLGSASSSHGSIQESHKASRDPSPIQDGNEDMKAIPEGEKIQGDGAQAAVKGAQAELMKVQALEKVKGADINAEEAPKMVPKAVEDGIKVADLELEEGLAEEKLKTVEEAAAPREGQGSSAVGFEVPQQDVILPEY

[6] = target: T3, Mitogen-activated protein kinase kinase kinase 5 (Homo sapiens) (UniProt Q99683); conditions: Compound concentration 1000.0 nM
T3 sequence (whole entry): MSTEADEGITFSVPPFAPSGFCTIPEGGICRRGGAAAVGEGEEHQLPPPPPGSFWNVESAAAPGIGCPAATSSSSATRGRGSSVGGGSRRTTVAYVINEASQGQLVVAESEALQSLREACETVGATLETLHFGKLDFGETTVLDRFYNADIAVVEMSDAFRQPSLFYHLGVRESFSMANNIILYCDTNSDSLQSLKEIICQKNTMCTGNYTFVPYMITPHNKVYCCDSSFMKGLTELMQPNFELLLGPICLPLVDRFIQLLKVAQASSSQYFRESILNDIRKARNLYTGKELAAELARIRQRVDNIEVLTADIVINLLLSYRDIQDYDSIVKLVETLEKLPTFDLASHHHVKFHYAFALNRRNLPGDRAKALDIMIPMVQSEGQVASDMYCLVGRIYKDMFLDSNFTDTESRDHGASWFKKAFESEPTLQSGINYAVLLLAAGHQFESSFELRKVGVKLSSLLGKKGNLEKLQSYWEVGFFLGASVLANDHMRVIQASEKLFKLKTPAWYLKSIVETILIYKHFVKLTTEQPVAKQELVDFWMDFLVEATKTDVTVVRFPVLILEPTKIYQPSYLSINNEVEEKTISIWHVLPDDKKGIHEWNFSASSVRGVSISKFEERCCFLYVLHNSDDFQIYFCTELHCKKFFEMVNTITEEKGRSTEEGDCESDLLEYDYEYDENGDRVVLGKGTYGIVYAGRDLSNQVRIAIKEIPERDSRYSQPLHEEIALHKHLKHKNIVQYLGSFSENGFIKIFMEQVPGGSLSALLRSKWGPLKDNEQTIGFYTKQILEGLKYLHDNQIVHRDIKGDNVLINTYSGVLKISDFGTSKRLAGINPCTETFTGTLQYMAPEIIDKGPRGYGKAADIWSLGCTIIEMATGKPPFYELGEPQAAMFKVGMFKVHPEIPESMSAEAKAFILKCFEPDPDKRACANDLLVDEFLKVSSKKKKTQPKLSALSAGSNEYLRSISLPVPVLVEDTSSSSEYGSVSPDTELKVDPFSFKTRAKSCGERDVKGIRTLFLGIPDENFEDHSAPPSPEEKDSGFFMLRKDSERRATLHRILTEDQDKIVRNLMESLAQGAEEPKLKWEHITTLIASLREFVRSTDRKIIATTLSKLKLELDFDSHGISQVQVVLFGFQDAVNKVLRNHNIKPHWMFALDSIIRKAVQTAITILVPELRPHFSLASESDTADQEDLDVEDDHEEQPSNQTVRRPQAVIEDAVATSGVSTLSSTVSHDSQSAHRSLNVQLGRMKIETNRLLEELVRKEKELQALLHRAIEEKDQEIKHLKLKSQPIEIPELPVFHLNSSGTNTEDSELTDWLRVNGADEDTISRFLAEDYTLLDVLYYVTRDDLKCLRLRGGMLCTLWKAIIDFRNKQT

[7] = target: Ephrin type-A receptor 2 (Homo sapiens) (UniProt P29317); conditions: Compound concentration 1000.0 nM
[8] = target: Insulin-like growth factor 1 receptor (Homo sapiens) (UniProt P08069); conditions: Compound concentration 1000.0 nM
Chain of Insulin-like growth factor 1 receptor (Homo sapiens) (P08069 31-736 limits assumed): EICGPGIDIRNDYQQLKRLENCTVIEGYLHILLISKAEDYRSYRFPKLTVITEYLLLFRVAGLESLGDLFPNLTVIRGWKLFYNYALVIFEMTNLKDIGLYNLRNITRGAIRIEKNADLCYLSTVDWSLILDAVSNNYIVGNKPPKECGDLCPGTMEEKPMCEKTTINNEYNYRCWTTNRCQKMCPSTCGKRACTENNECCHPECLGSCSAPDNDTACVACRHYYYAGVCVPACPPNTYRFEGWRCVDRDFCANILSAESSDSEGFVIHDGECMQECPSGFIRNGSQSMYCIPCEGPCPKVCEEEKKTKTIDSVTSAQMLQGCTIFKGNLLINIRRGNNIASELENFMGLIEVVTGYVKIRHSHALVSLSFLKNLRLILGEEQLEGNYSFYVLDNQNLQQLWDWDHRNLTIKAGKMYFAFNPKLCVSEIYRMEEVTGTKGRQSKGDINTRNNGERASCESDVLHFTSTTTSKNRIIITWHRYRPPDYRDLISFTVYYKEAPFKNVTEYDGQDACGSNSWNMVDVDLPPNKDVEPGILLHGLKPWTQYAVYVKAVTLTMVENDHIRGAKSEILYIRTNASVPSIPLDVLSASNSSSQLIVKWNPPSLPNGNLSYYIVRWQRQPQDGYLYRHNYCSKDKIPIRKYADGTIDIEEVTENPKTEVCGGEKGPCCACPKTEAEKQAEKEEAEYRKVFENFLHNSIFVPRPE
Chain of Insulin-like growth factor 1 receptor (Homo sapiens) (P08069 741-1367 limits assumed): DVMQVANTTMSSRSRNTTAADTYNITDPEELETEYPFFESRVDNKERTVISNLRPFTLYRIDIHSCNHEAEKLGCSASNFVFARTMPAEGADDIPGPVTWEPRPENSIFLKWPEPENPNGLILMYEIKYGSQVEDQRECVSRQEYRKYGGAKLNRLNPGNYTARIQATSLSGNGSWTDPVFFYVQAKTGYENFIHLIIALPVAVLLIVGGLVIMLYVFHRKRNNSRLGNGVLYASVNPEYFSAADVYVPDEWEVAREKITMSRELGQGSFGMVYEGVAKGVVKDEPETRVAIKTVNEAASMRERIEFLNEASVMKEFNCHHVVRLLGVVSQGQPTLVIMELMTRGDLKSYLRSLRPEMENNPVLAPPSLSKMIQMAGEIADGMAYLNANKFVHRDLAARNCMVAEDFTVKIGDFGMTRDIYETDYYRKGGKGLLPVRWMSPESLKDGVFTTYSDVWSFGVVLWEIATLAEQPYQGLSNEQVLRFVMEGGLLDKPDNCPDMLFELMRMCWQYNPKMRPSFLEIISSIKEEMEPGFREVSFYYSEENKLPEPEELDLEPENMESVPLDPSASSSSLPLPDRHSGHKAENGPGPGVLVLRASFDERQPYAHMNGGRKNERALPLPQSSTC

[9] = tested on: Proto-oncogene tyrosine-protein kinase receptor Ret (Homo sapiens), P07949 [V804M]; conditions: Compound concentration 1000.0 nM
[10] = target: Serine/threonine-protein kinase DCLK1 (Homo sapiens) (UniProt O15075); conditions: Compound concentration 1000.0 nM
Chain of Serine/threonine-protein kinase DCLK1 (Homo sapiens) (O15075 whole entry): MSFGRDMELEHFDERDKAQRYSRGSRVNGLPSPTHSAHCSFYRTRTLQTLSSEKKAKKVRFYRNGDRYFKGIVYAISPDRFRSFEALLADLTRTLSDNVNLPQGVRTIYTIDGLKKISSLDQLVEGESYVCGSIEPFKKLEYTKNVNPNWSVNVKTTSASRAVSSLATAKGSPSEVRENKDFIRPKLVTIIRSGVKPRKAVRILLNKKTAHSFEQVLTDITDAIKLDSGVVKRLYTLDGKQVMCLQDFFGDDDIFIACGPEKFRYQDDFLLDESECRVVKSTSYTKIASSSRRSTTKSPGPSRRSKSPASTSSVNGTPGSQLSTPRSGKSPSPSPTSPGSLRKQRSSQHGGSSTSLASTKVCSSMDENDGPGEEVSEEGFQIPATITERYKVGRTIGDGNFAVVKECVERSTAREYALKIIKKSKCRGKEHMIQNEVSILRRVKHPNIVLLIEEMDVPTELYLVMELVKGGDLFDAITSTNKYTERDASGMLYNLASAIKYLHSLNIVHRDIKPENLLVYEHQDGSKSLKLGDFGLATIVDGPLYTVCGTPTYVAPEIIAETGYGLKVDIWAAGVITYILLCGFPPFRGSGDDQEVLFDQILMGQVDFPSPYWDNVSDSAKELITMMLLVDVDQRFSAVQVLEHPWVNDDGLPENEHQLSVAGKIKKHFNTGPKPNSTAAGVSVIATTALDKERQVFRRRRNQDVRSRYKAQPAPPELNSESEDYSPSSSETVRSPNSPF

[11] = target: Mitogen-activated protein kinase kinase kinase 19 (Homo sapiens) (UniProt Q56UN5); conditions: Compound concentration 1000.0 nM
Chain of Mitogen-activated protein kinase kinase kinase 19 (Homo sapiens) (Q56UN5 whole entry): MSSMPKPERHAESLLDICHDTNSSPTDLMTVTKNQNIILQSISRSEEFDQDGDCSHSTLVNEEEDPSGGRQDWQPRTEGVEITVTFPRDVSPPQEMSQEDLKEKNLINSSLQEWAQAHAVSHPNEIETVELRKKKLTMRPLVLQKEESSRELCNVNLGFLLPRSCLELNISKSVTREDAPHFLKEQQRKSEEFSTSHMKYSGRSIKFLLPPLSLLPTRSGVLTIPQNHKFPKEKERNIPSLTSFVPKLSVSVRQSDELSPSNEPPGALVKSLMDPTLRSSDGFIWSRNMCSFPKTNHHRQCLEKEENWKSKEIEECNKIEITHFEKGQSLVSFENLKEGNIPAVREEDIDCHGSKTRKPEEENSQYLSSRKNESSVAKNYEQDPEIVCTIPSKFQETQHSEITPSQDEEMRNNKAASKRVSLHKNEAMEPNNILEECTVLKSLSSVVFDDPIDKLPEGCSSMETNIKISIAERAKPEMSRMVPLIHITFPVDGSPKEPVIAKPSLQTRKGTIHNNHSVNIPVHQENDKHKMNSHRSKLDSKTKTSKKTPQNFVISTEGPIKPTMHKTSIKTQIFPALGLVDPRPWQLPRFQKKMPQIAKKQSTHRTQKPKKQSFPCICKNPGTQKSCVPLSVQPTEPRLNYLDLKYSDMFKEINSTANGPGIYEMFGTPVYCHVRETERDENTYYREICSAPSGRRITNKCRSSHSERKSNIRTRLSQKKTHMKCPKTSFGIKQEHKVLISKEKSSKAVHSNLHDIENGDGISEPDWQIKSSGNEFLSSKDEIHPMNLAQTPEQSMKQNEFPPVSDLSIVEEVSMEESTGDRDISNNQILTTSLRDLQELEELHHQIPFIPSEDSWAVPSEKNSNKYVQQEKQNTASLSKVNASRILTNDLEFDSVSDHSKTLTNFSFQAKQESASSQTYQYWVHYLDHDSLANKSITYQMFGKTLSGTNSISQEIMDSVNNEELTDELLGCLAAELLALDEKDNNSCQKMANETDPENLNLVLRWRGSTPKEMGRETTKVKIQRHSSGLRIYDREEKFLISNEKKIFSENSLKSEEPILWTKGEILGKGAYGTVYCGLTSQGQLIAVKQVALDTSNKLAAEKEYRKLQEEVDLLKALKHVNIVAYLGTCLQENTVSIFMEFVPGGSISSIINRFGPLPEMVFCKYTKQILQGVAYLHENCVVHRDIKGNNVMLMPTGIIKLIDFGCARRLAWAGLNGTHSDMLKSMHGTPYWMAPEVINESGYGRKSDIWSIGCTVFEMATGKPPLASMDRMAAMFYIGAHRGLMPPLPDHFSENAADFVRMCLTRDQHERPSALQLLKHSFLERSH

CN(C)C(=O)Cn1cc(-c2nc(C3(c4ccc(-c5cnc(N)nc5)cc4)CC3)no2)cn1 [BI 0153]
inactive: residual activity [1] 82% | inhibition [2] 22.8% | residual activity [3] 85% | residual activity [4] 66% | residual activity [5] 100% | residual activity [6] 91% | residual activity [7] 89% | residual activity [8] 85% | residual activity [9] 100% | residual activity [10] 88% | residual activity [11] 73%

CN(C)C(=O)Cn1cc(-c2nc([C@@](C)(c3ccc(-c4cnc(N)nc4)cc3)C3CC3)no2)cn1 [BI 665915]
inactive: residual activity [1] 73% | inhibition [2] 9.24% | residual activity [3] 100% | residual activity [4] 73% | residual activity [5] 83% | residual activity [6] 99% | residual activity [7] 100% | residual activity [8] 100% | residual activity [9] 97% | residual activity [10] 71% | residual activity [11] 61%
